# System: progranulin
# Assay: Progranulin induction cellular assay (ELISA of secreted mouse PGRN)
# Assay type: cell-based
# Conditions: Mus musculus, BV-2, read-out: EC50 μM
# Procedure: Cellular Assays: Progranulin induction assay. To measure the efficacy of compounds, a progranulin induction cellular assay in mouse primary microglia (pMG), primary cortical neurons, and BV-2 cell lines is used. BV-2 cells are split the day before plating into a 96 well plate format at approximately 80%. Cells should be plated the day before and allowed for 1 hour attachment period and for 16 hour incubation. Levels of progranulin secreted into the cell culture medium or retained in the cell lysate can be quantified using an ELISA-based readout and measurement of secreted mouse PGRN in the medium was assessed by the methodology published by Ghidoni et al. 2012. Standard ELISA kits to measure PGRN are available from vendors such as Adipogen, R&D, and Biovendor.
# Table B below presents the results of a progranulin induction assay as described above.
row,SMILES,EC50 [µM]
1,"CCNC[C@]1(O)CO[C@H](C(=O)N2CCc3ccccc3[C@@H]2c2ccc(F)cc2)C1 [Compound 5024, ((2S,4S)-4-((ethylamino)methyl)-4-hydroxytetrahydrofuran-2-yl)((S)-1-(4-fluorophenyl)-3,4-dihydroisoquinolin-2(1H)-yl)methanone]",0.749
2,"CCNC[C@@]1(O)CO[C@H](C(=O)N2CCc3ccccc3[C@@H]2c2ccc(F)cc2)C1 [Compound 5031, ((2S,4R)-4-((ethylamino)methyl)-4-hydroxytetrahydrofuran-2-yl)((S)-1-(4-fluorophenyl)-3,4-dihydroisoquinolin-2(1H)-yl)methanone]",0.326

# Same assay, conditions: progranulin induction assay; mouse pMG, primary cortical neurons and BV-2 cell lines named, cell type not given; ELISA-based readout; read-out: EC50
row,EC50 [µM],SMILES
1,0.369,"NCC1COC(C(=O)N2CCc3ccccc3[C@@H]2c2ccc(F)cc2)C1 (stereo in doubt) [Compound 5008, ((2S,4S)-4-(aminomethyl)tetrahydrofuran-2-yl)((S)-1-(4-fluorophenyl)-3,4-dihydroisoquinolin-2(1H)-yl)methanone]"
2,0.37,"NCC1COC(C(=O)N2CCc3ccccc3[C@@H]2c2ccc(F)cc2)C1 (stereo in doubt) [Compound 5009, ((2S,4R)-4-(aminomethyl)tetrahydrofuran-2-yl)((S)-1-(4-fluorophenyl)-3,4-dihydroisoquinolin-2(1H)-yl)methanone]"
3,0.573,"N[C@H]1COC(C(=O)N2CCc3ccccc3[C@@H]2c2ccc(F)cc2)C1 (stereo in doubt) [Compound 5010, ((2S,4R)-4-aminotetrahydrofuran-2-yl)((S)-1-(4-fluorophenyl)-3,4-dihydroisoquinolin-2(1H)-yl)methanone]"
4,1.66,"N[C@@H]1COC(C(=O)N2CCc3ccccc3[C@@H]2c2ccc(F)cc2)C1 (stereo in doubt) [Compound 5011, ((2S,4S)-4-aminotetrahydrofuran-2-yl)((S)-1-(4-fluorophenyl)-3,4-dihydroisoquinolin-2(1H)-yl)methanone]"
5,0.125,"N[C@H]1COC(C(=O)N2CCc3ccccc3[C@@H]2c2ccc(F)cc2)C1 (stereo in doubt) [Compound 5012, ((2R,4R)-4-aminotetrahydrofuran-2-yl)((S)-1-(4-fluorophenyl)-3,4-dihydroisoquinolin-2(1H)-yl)methanone]"
6,0.323,"N[C@@H]1COC(C(=O)N2CCc3ccccc3[C@@H]2c2ccc(F)cc2)C1 (stereo in doubt) [Compound 5013, ((2R,4S)-4-aminotetrahydrofuran-2-yl)((S)-1-(4-fluorophenyl)-3,4-dihydroisoquinolin-2(1H)-yl)methanone]"
7,0.21,"NCC1(O)CCO[C@@H](C(=O)N2CCc3ccccc3[C@@H]2c2ccc(F)cc2)C1 (stereo in doubt) [Compound 5540, ((2R,4R)-4-(aminomethyl)-4-hydroxytetrahydro-2H-pyran-2-yl)((S)-1-(4-fluorophenyl)-3,4-dihydroisoquinolin-2(1H)-yl)methanone]"
8,0.41,"NC[C@@H]1CC[C@H](C(=O)N2CCc3ccccc3[C@@H]2c2ccc(F)cc2)O1 [Compound 5000, ((2R,5S)-5-(aminomethyl)tetrahydrofuran-2-yl)((S)-1-(4-fluorophenyl)-3,4-dihydroisoquinolin-2(1H)-yl)methanone]"
9,0.244,"NC[C@H]1CC[C@@H](C(=O)N2CCc3ccccc3[C@@H]2c2ccc(F)cc2)O1 [Compound 5001, ((2S,5R)-5-(aminomethyl)tetrahydrofuran-2-yl)((S)-1-(4-fluorophenyl)-3,4-dihydroisoquinolin-2(1H)-yl)methanone]"
10,0.278,"NC[C@H]1CC[C@H](C(=O)N2CCc3ccccc3[C@@H]2c2ccc(F)cc2)O1 [Compound 5002, ((2R,5R)-5-(aminomethyl)tetrahydrofuran-2-yl)((S)-1-(4-fluorophenyl)-3,4-dihydroisoquinolin-2(1H)-yl)methanone]"
11,0.509,"NC[C@@H]1CC[C@@H](C(=O)N2CCc3ccccc3[C@@H]2c2ccc(F)cc2)O1 [Compound 5003, ((2S,5S)-5-(aminomethyl)tetrahydrofuran-2-yl)((S)-1-(4-fluorophenyl)-3,4-dihydroisoquinolin-2(1H)-yl)methanone]"
12,0.064,"N[C@H]1CO[C@H](C(=O)N2CCc3ccccc3[C@@H]2c2ccc(F)cc2)C[C@H]1O [Compound 5043, ((2S,4R,5S)-5-amino-4-hydroxytetrahydro-2H-pyran-2-yl)((S)-1-(4-fluorophenyl)-3,4-dihydroisoquinolin-2(1H)-yl)methanone]"
13,0.575,"N[C@H]1CO[C@H](C(=O)N2CCc3ccccc3[C@@H]2c2ccc(F)cc2)OC1 [Compound 5048, (trans-5-amino-1,3-dioxan-2-yl)((S)-1-(4-fluorophenyl)-3,4-dihydroisoquinolin-2(1H)-yl)methanone]"
14,0.258,"N[C@H]1CO[C@@H](C(=O)N2CCc3ccccc3[C@@H]2c2ccc(F)cc2)OC1 [Compound 5049, (cis-5-amino-1,3-dioxan-2-yl)((S)-1-(4-fluorophenyl)-3,4-dihydroisoquinolin-2(1H)-yl)methanone]"
15,0.006,"N[C@H]1C[C@H](C(=O)N2CCc3ccccc3[C@@H]2c2ccc(F)cc2)OC[C@H]1O [Compound 5051, ((2R,4S,5S)-4-amino-5-hydroxytetrahydro-2H-pyran-2-yl)((S)-1-(4-fluorophenyl)-3,4-dihydroisoquinolin-2(1H)-yl)methanone]"

# The remaining lines, values behind:
row,SMILES,EC50 [µM]
1,"NC1CCC(C(=O)N2CCc3ccccc3[C@@H]2c2ccc(F)cc2F)OC1 (stereo in doubt) [Compound 5018, ((2R,5S)-5-aminotetrahydro-2H-pyran-2-yl)((R)-1-(2,4-difluorophenyl)-3,4-dihydroisoquinolin-2(1H)-yl)methanone]",> 10
2,"N[C@@]12CC[C@@](C(=O)N3CCc4ccccc4C3c3ccc(F)cc3)(C1)OC2 (stereo in doubt) [Compound 5020, (4-amino-2-oxabicyclo[2.2.1]heptan-1-yl)((S)-1-(4-fluorophenyl)-3,4-dihydroisoquinolin-2(1H)-yl)methanone]",1.06
3,"N[C@@]12CC[C@@](C(=O)N3CCc4ccccc4[C@H]3c3ccc(F)cc3)(C1)OC2 (stereo in doubt) [Compound 5022, (4-amino-2-oxabicyclo[2.2.1]heptan-1-yl)((S)-1-(4-fluorophenyl)-3,4-dihydroisoquinolin-2(1H)-yl)methanone]",4.16
4,"COCCN[C@H]1CC[C@@H](C(=O)N2CCc3ccccc3[C@@H]2c2ccc(F)cc2)OC1 [Compound 5029, ((S)-1-(4-fluorophenyl)-3,4-dihydroisoquinolin-2(1H)-yl)((2S,5S)-5-((2-methoxyethyl)amino)tetrahydro-2H-pyran-2-yl)methanone]",0.37
5,"COCCN[C@H]1CC[C@H](C(=O)N2CCc3ccccc3[C@@H]2c2ccc(F)cc2)OC1 [Compound 5030, ((S)-1-(4-fluorophenyl)-3,4-dihydroisoquinolin-2(1H)-yl)((2R,5S)-5-((2-methoxyethyl)amino)tetrahydro-2H-pyran-2-yl)methanone]",0.348
6,"O=C([C@@H]1CC[C@@H](NCCO)CO1)N1CCc2ccccc2[C@@H]1c1ccc(F)cc1 [Compound 5032, ((S)-1-(4-fluorophenyl)-3,4-dihydroisoquinolin-2(1H)-yl)((2S,5R)-5-((2-hydroxyethyl)amino)tetrahydro-2H-pyran-2-yl)methanone]",0.213
7,"O=C([C@@H]1CC[C@H](NCCO)CO1)N1CCc2ccccc2[C@@H]1c1ccc(F)cc1 [Compound 5033, ((S)-1-(4-fluorophenyl)-3,4-dihydroisoquinolin-2(1H)-yl)((2S,5S)-5-((2-hydroxyethyl)amino)tetrahydro-2H-pyran-2-yl)methanone]",0.163
8,"O=C([C@H]1CC[C@H](NCCO)CO1)N1CCc2ccccc2[C@@H]1c1ccc(F)cc1 [Compound 5034, ((S)-1-(4-fluorophenyl)-3,4-dihydroisoquinolin-2(1H)-yl)((2R,5S)-5-((2-hydroxyethyl)amino)tetrahydro-2H-pyran-2-yl)methanone]",0.185
9,"COCCN[C@@H]1CC[C@@H](C(=O)N2CCc3ccccc3[C@@H]2c2ccc(F)cc2)OC1 [Compound 5035, ((S)-1-(4-fluorophenyl)-3,4-dihydroisoquinolin-2(1H)-yl)((2S,5R)-5-((2-methoxyethyl)amino)tetrahydro-2H-pyran-2-yl)methanone]",0.371
10,"CCNC[C@]1(O)CO[C@@H](C(=O)N2CCc3ccccc3[C@@H]2c2ccc(F)cc2)C1 [Compound 5036, ((2R,4S)-4-((ethylamino)methyl)-4-hydroxytetrahydrofuran-2-yl)((S)-1-(4-fluorophenyl)-3,4-dihydroisoquinolin-2(1H)-yl)methanone]",0.356
11,"CCNC[C@@]1(O)CO[C@@H](C(=O)N2CCc3ccccc3[C@@H]2c2ccc(F)cc2)C1 [Compound 5037, ((2R,4R)-4-((ethylamino)methyl)-4-hydroxytetrahydrofuran-2-yl)((S)-1-(4-fluorophenyl)-3,4-dihydroisoquinolin-2(1H)-yl)methanone]",0.339
12,"O=C([C@H]1C[C@](O)(CNCCO)CO1)N1CCc2ccccc2[C@@H]1c1ccc(F)cc1 [Compound 5041, ((S)-1-(4-fluorophenyl)-3,4-dihydroisoquinolin-2(1H)-yl)((2R,4S)-4-hydroxy-4-(((2-hydroxyethyl)amino)methyl)tetrahydrofuran-2-yl)methanone]",0.294
13,"CCN[C@H]1CO[C@@H](C(=O)N2CCc3ccccc3[C@@H]2c2ccc(F)cc2)OC1 [Compound 5050, (cis-5-(ethylamino)-1,3-dioxan-2-yl)((S)-1-(4-fluorophenyl)-3,4-dihydroisoquinolin-2(1H)-yl)methanone]",0.35

# From patent US20230406843A1, “Progranulin Modulators and Methods of Using the Same” (ARKUDA THERAPEUTICS, priority 2020, published 2023)
